In patent US10421761B2, “Compounds for kinase modulation, and indications therefor” (Plexxikon Inc., priority 2013, dated 2019):

Assays:
[1] = molecular target: T1, BRAF V600E (Homo sapiens, UniProt P15056, V600E); test: BRAF V600E biochemical kinase activity assay (AlphaScreen, biotin-MEK1 substrate); conditions: BRAF V600E biochemical inhibitory activity
T1 construct: purchased Upstate Biotechnology
Method: Compounds to be tested are diluted in dimethyl sulfoxide to a concentration of 0.1 mM. These are serially diluted 15 μL into 30 μL of dimethyl sulfoxide seven times in 96 well plates for a total of 8 dilution points, and for each dilution point 1 μL is added to a well of an assay plate. […] The reaction is started with addition of 10 μL of 200 μM ATP (i.e. final 100 μM ATP). After incubation of the kinase reaction for 45 minutes at room temperature, 5 μL/well of Stop Solution is added (25 mM Hepes pH 7.5, 100 mM EDTA, 0.01% BSA with donor beads (Streptavidin coated beads, Perkin Elmer), acceptor beads (Protein A coated, Perkin Elmer), and anti-phosphor MEK1/2 antibody (CellSignal), each at final concentration 10 μg/mL). The plates are incubated for 3 hours at room temperature and read on Envision reader (Perkin Elmer). Phosphorylation of Mek1 results in binding of the anti-phosphor-MEK1/2antibody and association of the donor and acceptor beads such that signal correlates with kinase activity. The signal versus compound concentration is used to determine the IC50.
The in vitro RAF kinase activities were determined by measuring phosphorylation of a biotinylated substrate peptide as described previously (Tsai, J. et al. Proc Natl Acad Sci USA 105, 3041-3046 (2008)). Compounds of formula (I), e.g., compound A, was also tested against a panel of 287 kinases at concentrations of 1 μM in duplicate. Kinases inhibited by over 50% were followed up by IC50 determination. The 287 kinases represent all major branches of the kinome phylogenetic tree. The inhibition screen of 287 kinases was carried out under contract as complementary panels at Invitrogen (Life Technologies, Wis., USA) SelectScreen™ profiling service, DiscoverX (CA, USA) KINOMEScan™ service, and Reaction Biology Corporation (PA, USA) Kinase HotSpot℠ service.

[2] = test system: A375 (BRAF V600E) cell line; test: A375 P-ERK inhibition assay (AlphaScreen); assay type: cell-based, human; conditions: Homo sapiens, A-375; A375_P-ERK
Method: (§1) Phospho-ERK AlphaScreen® assay. To determine the effects of compound treatment upon phosphorylation of ERK1/2, cells were plated in a 96-well dish and treated with an 8-point titration of compound for one hour at 37° C. before lysis. To detect pERK, cell lysates were incubated with streptavidin-coated AlphaScreen® donor beads, anti-mouse IgG AlphaScreen® acceptor beads, a biotinylated anti-ERK1/2 rabbit antibody, and a mouse antibody that recognizes ERK1/2 only when it is phosphorylated on Thr202 and Tyr204. The biotinylated ERK1/2 antibody binds to both the streptavidin-coated AlphaScreen® donor beads and to ERK1/2 (regardless of its phosphorylation state), and the phospho-ERK1/2 antibody binds to the acceptor beads and to ERK1/2 that is phosphorylated at Thr202/Tyr204. An increase in ERK1/2 phosphorylation at Thr202/Tyr204 brings the donor and acceptor AlphaScreen® beads into close proximity, generating a signal that can be quantified on an EnVision reader (Perkin Elmer).

[3] = test system: IPC-298 (NRAS Q61L) cell line; test: IPC-298 P-ERK cell activation assay (AlphaScreen); assay type: cell-based, human; conditions: Homo sapiens; P-ERK cell activation, IPC-298; numeric bounds; read-out: Cell activity (EC50 μM) IPC-298_P-ERK
Method: (§2) B9 is a squamous cell carcinoma cell line expressing activated HRAS that was isolated from a DMBA/TPA-induced mouse model of skin carcinogenesis (Stoler, et al. The Journal of Cell Biology, 1993, 122(5), 1103-17). IPC-298 is a human melanoma cell line that expresses activated NRAS (Aubert, et al. International Journal of Cancer, 1993, 54(5), 784-92). To determine whether compounds induce phosphorylated ERK and MEK, cells are plated in a 96-well dish and treated with an 8-point titration of compound for one hour at 37° C. The media is then removed and the cells are incubated with lysis buffer containing protease and phosphatase inhibitors. Phosphorylated ERK and MEK in the resulting lysates is detected using AlphaScreen™ technology. To detect phosphorylated ERK, cell lysates are incubated with streptavidin-coated donor beads, anti-mouse IgG acceptor beads, a biotinylated anti-ERK1/2 rabbit antibody, and a mouse antibody that recognizes ERK1/2 only when it is phosphorylated on Thr202 and Tyr204. The biotinylated ERK1/2 antibody will bind to both the streptavidin-coated donor beads and to ERK1/2 (regardless of its phosphorylation state), and the phospho-ERK1/2 antibody will bind to the acceptor beads and to ERK1/2 that is phosphorylated at Thr202/Tyr204. Excitation of the beads with laser light at 680 nm produces singlet oxygen, which is rapidly quenched unless the beads are in close proximity. When ERK is phosphorylated, both antibodies can bind the same protein, bringing the donor and acceptor beads into close proximity, producing a signal that can be measured at 580 nm. MEK phosphorylation is detected using a similar approach, only with antibodies directed against total MEK1/2 and MEK1/2 that is phosphorylated at Ser217 and Ser221.
as §1

[4] = test system: B9 (HRAS Q61L) cell line; test: B9 P-ERK cell activation assay (AlphaScreen); assay type: cell-based, mouse; conditions: Mus musculus; P-ERK cell activation, B9; numeric bounds; read-out: Cell activity (EC50 μM) B9_pERK
Method: as §2, §1

T1 sequence (P15056 whole entry V600E): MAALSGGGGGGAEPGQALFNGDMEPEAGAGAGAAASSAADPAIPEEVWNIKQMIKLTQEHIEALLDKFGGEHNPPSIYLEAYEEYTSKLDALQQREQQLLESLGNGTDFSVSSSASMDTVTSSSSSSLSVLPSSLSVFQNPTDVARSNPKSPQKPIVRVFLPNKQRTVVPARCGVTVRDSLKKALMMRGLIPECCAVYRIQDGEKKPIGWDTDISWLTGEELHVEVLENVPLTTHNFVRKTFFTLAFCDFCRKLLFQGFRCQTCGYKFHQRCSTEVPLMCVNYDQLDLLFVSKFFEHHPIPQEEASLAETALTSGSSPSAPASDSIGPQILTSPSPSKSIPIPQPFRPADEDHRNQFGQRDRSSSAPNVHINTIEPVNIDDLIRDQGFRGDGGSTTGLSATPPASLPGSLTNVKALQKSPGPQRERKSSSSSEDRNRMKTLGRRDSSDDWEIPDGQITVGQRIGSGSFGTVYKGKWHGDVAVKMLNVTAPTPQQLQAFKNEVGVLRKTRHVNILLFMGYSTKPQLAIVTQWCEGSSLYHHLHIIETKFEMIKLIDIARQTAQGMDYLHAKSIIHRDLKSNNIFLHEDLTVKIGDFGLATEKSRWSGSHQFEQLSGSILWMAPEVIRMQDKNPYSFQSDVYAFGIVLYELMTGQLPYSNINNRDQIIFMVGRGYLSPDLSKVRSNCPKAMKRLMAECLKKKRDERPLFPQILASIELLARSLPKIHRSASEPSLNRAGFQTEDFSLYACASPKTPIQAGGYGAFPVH

SMILES | IC50 [1] [µM] | IC50 [2] [µM] | EC50 [3] [µM] | EC50 [4] [µM]
CCC(C)S(=O)(=O)Nc1ccc(F)c(C(=O)c2c[nH]c3nccc(C#N)c23)c1F (stereo not shown) [P-2020, N-[3-(4-cyano-1H-pyrrolo[2,3-b]pyridine-3-carbonyl)-2,4-difluoro-phenyl]butane-2-sulfonamide] | 0.0001 to 1 | 0.0001 to 1 | > 10 | > 10
N#Cc1ccnc2[nH]cc(C(=O)c3c(F)ccc(NS(=O)(=O)C4CCC4)c3F)c12 [P-2021, N-[3-(4-cyano-1H-pyrrolo[2,3-b]pyridine-3-carbonyl)-2,4-difluoro-phenyl]cyclobutanesulfonamide] | 0.0001 to 1 | > 10 | > 10 | > 10
N#Cc1ccnc2[nH]cc(C(=O)c3c(F)ccc(NS(=O)(=O)N4CCOCC4)c3F)c12 [P-2022, N-[3-(4-cyano-1H-pyrrolo[2,3-b]pyridine-3-carbonyl)-2,4-difluoro-phenyl]morpholine-4-sulfonamide] | 0.0001 to 1 | 0.0001 to 1 | > 10 | > 10
COc1ccnc2[nH]cc(C(=O)c3c(F)ccc(NS(=O)(=O)N4CCOCC4)c3F)c12 [P-2023, N-[2,4-difluoro-3-(4-methoxy-1H-pyrrolo[2,3-b]pyridine-3-carbonyl)phenyl]morpholine-4-sulfonamide] | 0.0001 to 1 | 1 to 10 | > 10 | > 10
O=C(c1c(F)ccc(NS(=O)(=O)N2CCOCC2)c1F)c1c[nH]c2nccc(Cl)c12 [P-2024, N-[3-(4-chloro-1H-pyrrolo[2,3-b]pyridine-3-carbonyl)-2,4-difluoro-phenyl]morpholine-4-sulfonamide] | 0.0001 to 1 | 0.0001 to 1 | > 10 | > 10
O=C(c1c(F)ccc(NS(=O)(=O)N2CCCC2)c1F)c1c[nH]c2nccc(Cl)c12 [P-2025, N-[3-(4-chloro-1H-pyrrolo[2,3-b]pyridine-3-carbonyl)-2,4-difluoro-phenyl]pyrrolidine-1-sulfonamide] | 0.0001 to 1 | 0.0001 to 1 | > 10 | > 10
CN(C)S(=O)(=O)Nc1ccc(F)c(C(=O)c2c[nH]c3ncncc23)c1F [P-2026, 5-[3-(dimethylsulfamoylamino)-2,6-difluoro-benzoyl]-7H-pyrrolo[2,3-d]pyrimidine] | 1 to 10 | > 10 | > 10 | > 10
O=C(c1c(F)ccc(NS(=O)(=O)C2CCCCC2)c1F)c1c[nH]c2ncncc12 [P-2027, N-[2,4-difluoro-3-(7H-pyrrolo[2,3-d]pyrimidine-5-carbonyl)phenyl]cyclohexanesulfonamide] | 0.0001 to 1 | 0.0001 to 1 | > 10 | > 10
O=C(c1c(F)ccc(NS(=O)(=O)C2CCC2)c1F)c1c[nH]c2ncncc12 [P-2030, N-[2,4-difluoro-3-(7H-pyrrolo[2,3-d]pyrimidine-5-carbonyl)phenyl]cyclobutanesulfonamide] | 1 to 10 | 1 to 10 | > 10 | > 10
O=C(c1c(F)ccc(NS(=O)(=O)N2CCOCC2)c1F)c1c[nH]c2ncncc12 [P-2031, N-[2,4-difluoro-3-(7H-pyrrolo[2,3-d]pyrimidine-5-carbonyl)phenyl]morpholine-4-sulfonamide] | 1 to 10 | > 10 | > 10 | > 10
O=C(c1cccc(NS(=O)(=O)N2CCCC2)c1F)c1c[nH]c2ncncc12 [P-2032, N-[2-fluoro-3-(7H-pyrrolo[2,3-d]pyrimidine-5-carbonyl)phenyl]pyrrolidine-1-sulfonamide] | 0.0001 to 1 | 0.0001 to 1 | > 10 | > 10
CC(=O)Nc1ccc(NC(=O)c2c(F)ccc(NS(=O)(=O)N3CCCCC3)c2F)cn1 [P-2033, N-(6-acetamido-3-pyridyl)-2,6-difluoro-3-(1-piperidylsulfonylamino)benzamide] | 0.0001 to 1 | > 10 | > 10 | > 10
CC(=O)Nc1ccc(NC(=O)c2c(F)ccc(NS(=O)(=O)N(C)C)c2F)cn1 [P-2034, N-(6-acetamido-3-pyridyl)-3-(dimethylsulfamoylamino)-2,6-difluoro-benzamide] | 0.0001 to 1 | 1 to 10 | > 10 | > 10
CC(=O)Nc1ccc(NC(=O)c2c(F)ccc(NS(=O)(=O)C3CCCC3)c2F)cn1 [P-2035, N-(6-acetamido-3-pyridyl)-3-(cyclopentylsulfonylamino)-2,6-difluoro-benzamide] | 0.0001 to 1 | 1 to 10 | > 10 | > 10
CC(=O)Nc1ccc(NC(=O)c2c(F)ccc(NS(=O)(=O)N3CCCC3)c2F)cn1 [P-2036, N-(6-acetamido-3-pyridyl)-2,6-difluoro-3-(pyrrolidin-1-ylsulfonylamino)benzamide] | 1 to 10 | 1 to 10 | > 10 | > 10
CC(C)Nc1ncnc2[nH]cc(C(=O)c3c(F)ccc(NS(=O)(=O)C(C)C)c3F)c12 [P-2037, N-[2,4-difluoro-3-[4-(isopropylamino)-7H-pyrrolo[2,3-d]pyrimidine-5-carbonyl]phenyl]propane-2-sulfonamide] | 0.0001 to 1 | 0.0001 to 1 | > 10 | > 10
CC(C)Nc1ncnc2[nH]cc(C(=O)c3c(F)ccc(NS(=O)(=O)N4CCCCC4)c3F)c12 [P-2038, N-[2,4-difluoro-3-[4-(isopropylamino)-7H-pyrrolo[2,3-d]pyrimidine-5-carbonyl]phenyl]piperidine-1-sulfonamide] | 0.0001 to 1 | 0.0001 to 1 | > 10 | > 10
CC(C)Nc1ncnc2[nH]cc(C(=O)c3c(F)ccc(NS(=O)(=O)C4CCCCC4)c3F)c12 [P-2039, N-[2,4-difluoro-3-[4-(isopropylamino)-7H-pyrrolo[2,3-d]pyrimidine-5-carbonyl]phenyl]cyclohexanesulfonamide] | 0.0001 to 1 | 0.0001 to 1 | > 10 | > 10
CC(C)Nc1ncnc2[nH]cc(C(=O)c3c(F)ccc(NS(=O)(=O)C4CCCC4)c3F)c12 [P-2040, N-[2,4-difluoro-3-[4-(isopropylamino)-7H-pyrrolo[2,3-d]pyrimidine-5-carbonyl]phenyl]cyclopentanesulfonamide] | 0.0001 to 1 | 0.0001 to 1 | > 10 | > 10
